Non-standard residues stand in square brackets, D forms with d. Residues, ends and D or L forms follow the SMILES beside them.

The subject of experiment [1] is anti-HA mAb clone 12ca5. As to the kind of experiment: Competition fluorescence polarization of HA epitope and analogues. Type of experiment: binding. Particulars: for IC50: competition FP, 100 nM 12ca5, 28 nM YPYDVPDYAK(FITC)-CONH2, 1 mg/mL BSA, 0.02% Tween 20, 1x PBS, RT, read after 1 h; for Kd: from competition FP, 100 nM 12ca5, 28 nM FITC tracer. On the procedure:
Competition fluorescence polarization of HA epitope and analogues:
Solutions of unlabeled peptides (~1 mg/mL each; Supplementary Table 1) in 1x PBS was prepared in the presence of 100 nM 12ca5, 1 mg/mL BSA, 0.02% Tween 20 (120 μL). Fluorescent competitor was added (YPYDVPDYAK(FITC)α-CONH2; 28 nM).
The resulting solution was diluted serially (20 μL) into 100 nM 12ca5, 28 nM […]
YPYDVPDYAK(FITC)α-CONH2, 1 mg/mL BSA, 0.02% Tween 20 in 1x PBS (80 μL; […]
5-fold dilutions). The resulting solutions were transferred to a 96 well plate (Greiner Bio- […]
(RT), and read after 1 h on a Tecan Infinite M1000 plate reader (470 nm excitation; 517 nm detection; 5 nm bandwidth). The concentration of fluorescent […] was determined based on absorbance at 490 nm, using ε = 76,900 M-1cm-1.
Competition fluorescence polarization of HA epitope Ala scan mutants:
Competition fluorescence polarization experiments were carried out as described in Competition fluorescence polarization of HA epitope and analogues.
For orientation: Fluorescence polarisation rises when a labelled molecule tumbles more slowly, as on binding a larger partner.

For experiment [2], the system named is 12ca5. As to the kind of experiment: Affinity selection from 10^8-member library against 12ca5 with exogenous competitor. Particulars: 10 pM/member, 0.13 nmol 12ca5.
For experiment [3], the system named is 12ca5. Kind of experiment: Magnetic bead affinity capture of 12ca5-binding peptides, recovery by nLC-MS. Further details: species or system mouse. How it is done: Identification of binders from high-diversity libraries would necessitate their efficient recovery at high dilution. To assess the utility of magnetic bead-based affinity capture for this purpose, we investigated the recovery of a number of peptide binders with varying affinity for anti-HA mAb clone 12ca5 (12ca5), which recognizes the linear motif DXXDYA (Supplementary Figs. 1–6; Supplementary Table 1). In these experiments, streptavidin-coated magnetic beads (1 mg; 0.13 nmol IgG binding capacity) functionalized with biotinylated 12ca5 were incubated with mixtures of 12ca5-binding peptides (either 1 nM/peptide, 100 pM/peptide, or 10 pM/peptide; 1 mL scale). The magnetic beads were isolated, washed with buffer, and treated with chemical denaturant to elute bound peptides. A portion of this eluate (~2%) was subjected to nLC-MS analysis, and recovery was quantified using normalized MS response. To calculate recovery, a separate dose-response curve was generated for each peptide, since their MS responses varied by ~5-fold (Supplementary Fig. 7). […]

In experiment [1], `NCC(=O)N[C@H](Cc1ccc(O)cc1)C(=O)N1CCC[C@@H]1C(=O)N[C@H](Cc1ccc(O)cc1)C(=O)N[C@H](CCC(=O)O)C(=O)N[C@H](Cc1ccc(O)cc1)C(=O)N[C@H](CC(=O)O)C(=O)N[C@H](Cc1c[nH]c2ccccc12)C(=O)N[C@H](CCC(=O)O)C(N)=O` [Gypyeydwe, reference compound] (H-G[dY][dP][dY][dE][dY][dD][dW][dE]-NH2) had an IC50 of 62 ± 8 µM and a Kd of 3 µM. The “competitor concentration required to attenuate the recovery of DXXDY(A/S) peptides” value in experiment [2] is 100 µM.
In experiment [1], `C[C@H](NC(=O)[C@H](Cc1ccc(O)cc1)NC(=O)[C@H](CC(=O)O)NC(=O)[C@H](CCC(=O)O)NC(=O)[C@H](Cc1ccc(O)cc1)NC(=O)[C@H](CC(=O)O)NC(=O)[C@@H](N)Cc1ccccc1)C(=O)N[C@@H](CCC(=O)O)C(=O)N[C@@H](Cc1c[nH]c2ccccc12)C(=O)N[C@@H](CCCCN)C(N)=O` [FDYEDYAEWK] (H-FDYEDYAEWK-NH2) showed an IC50 of 0.59 ± 0.19 µM and a Kd of 0.025 ± 0.013 µM. Also, the recovery in experiment [3] (1 mg 12ca5-functionalized beads, 1 mL, 1 nM to 10 pM/peptide, 1 h 4 °C, 3 PBS washes (~6 min), normalized MS response) was found to be 33%. For the same compound, the “recovery expected based on measured dissociation rate” value in experiment [3] (based on koff = 3.0 × 10^−3 s^−1 and total wash time of ~6 min) was found to be 34%.

By IC50 is commonly meant the midpoint of a concentration-inhibition curve. The low end stands for greater potency in that assay, the high end for weaker potency in that assay. For orientation: Kd means the equilibrium constant for the complex coming apart.
